{"source": "paper PMC1175024", "about": "“Chondrocytes, synoviocytes and dermal fibroblasts all express PH-20, a hyaluronidase active at neutral pH” (Arthritis Research & Therapy, 2005)", "molecular_target": "T1, PH-20 (sperm adhesion molecule 1), immunopurified from human connective tissue cell layers (Homo sapiens, UniProt P38567)", "T1 construct": "gene SPAM1; 60-65 kDa; no tag", "T1 sequence (P38567 36-490)": "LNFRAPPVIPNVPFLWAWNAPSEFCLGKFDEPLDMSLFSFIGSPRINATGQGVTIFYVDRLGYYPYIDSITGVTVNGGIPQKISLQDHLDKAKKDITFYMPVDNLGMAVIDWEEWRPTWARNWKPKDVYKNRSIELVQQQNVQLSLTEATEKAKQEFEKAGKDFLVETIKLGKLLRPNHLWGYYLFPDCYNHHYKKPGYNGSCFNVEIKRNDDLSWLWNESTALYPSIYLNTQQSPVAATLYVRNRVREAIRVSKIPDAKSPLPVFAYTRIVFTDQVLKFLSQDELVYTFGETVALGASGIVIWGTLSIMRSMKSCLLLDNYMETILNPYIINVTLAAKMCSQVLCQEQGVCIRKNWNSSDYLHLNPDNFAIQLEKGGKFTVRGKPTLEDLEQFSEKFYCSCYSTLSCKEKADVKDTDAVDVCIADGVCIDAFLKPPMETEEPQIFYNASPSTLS", "assay": "hyaluronan substrate gel electrophoresis (zymography)", "type": "biochemical", "details": "5 ug/ml apigenin in DMSO; 0.15 M NaCl, 0.5 mM CaCl2, 7 mM 1,4-saccharolactone; pH 6.5; qualitative inhibition", "data": [{"smiles": "O=c1cc(-c2ccc(O)cc2)oc2cc(O)cc(O)c12", "note": "[apigenin]", "values": [{"measurement": "activity disappeared", "result": "hyaluronidase activity purified from cell layers with the immunoaffinity gel (Api(-), right lane), both disappeared"}]}]}
